Results reported in patent US9296776B2, “Substituted nucleoside derivatives with antiviral and antimicrobial properties” (Eastern Virginia Medical School, priority 2007, dated 2016).
Converted amounts (≈) assume the structure as drawn. Like-named read-outs stand apart in the source and are kept apart here.

Experiments:
Assay type in all cases: cell-based
[1] = system: HIV-1 BaL (cell-free virus); test: Single-round infection assay, cell-free virus BaL; conditions: for IC50: Human immunodeficiency virus 1, BAL, read-out: IC50 Cell-Free Virus BaL
[2] = system: Cell-associated HIV-1, SupT1 (IIIB); test: Single-round infection assay, cell-associated virus SupT1 (IIIB); conditions: for IC50: Human immunodeficiency virus 1, IIIB
[3] = system: HIV-1 IIIB (cell-free virus); test: microbe, parasite or virus in culture; conditions: for IC50: Human immunodeficiency virus 1, IIIB, read-out: IC50 Cell-Free Virus IIIB; for EC50 Cell-free HIV-1 (IIIB) / EC50: Table 8; for EC50: read-out: EC50 Cell-free HIV-1 (IIIB)
[4] = 2 h incubation, wash, 48 h culture
[5] = Table 1, 2 h incubation, wash, 48 h culture
[6] = SUP-T1, Table 1, 2 h incubation, wash, 48 h culture, read-out: IC50 Cell-Associated Virus SupT1 (IIIB)

Row | Compound | IC50 Cell-Free Virus BaL [1, 5] [µg/mL] | IC50 Cell-Associated Virus SupT1 (IIIB) [2, 5] [µg/mL] | IC50 Cell-Free Virus IIIB [3, 5] [µg/mL] | further results
1 | Cc1cn([C@H]2C=C[C@@H](CO)O2)c(=O)[nH]c1=O [2′,3′-didehydro-2′,3′-dideoxythymidine, reference compound] | – | – | – | IC50 [1]: 6.3 µg/mL (≈ 28.1 µM); IC50 ([2]; SUP-T1, read-out: IC50 Cell-Associated Virus SupT1 (IIIB)): 30.5 µg/mL (≈ 136 µM); IC50 [3]: 6 µg/mL (≈ 26.8 µM)
2 | Cc1cn([C@H]2C[C@H](N=[N+]=[N-])[C@@H](COC(=O)CCC(=O)OC[C@H]3O[C@@H](n4cc(C)c(=O)[nH]c4=O)C[C@@H]3N=[N+]=[N-])O2)c(=O)[nH]c1=O [KPH-913, AZT-succinate-AZT] | – | – | – | EC50 Cell-free HIV-1 (IIIB) [3, 4]: 8.6 µg/mL (≈ 13.9 µM); EC50 [3, 4]: 13.9 µM
3 | Cc1cn([C@H]2C[C@H](N=[N+]=[N-])[C@@H](COC(=O)CCCCCCCCCCCBr)O2)c(=O)[nH]c1=O [3′-azido-2′,3′-dideoxy-5′-O-(12-bromododecanoyl)thymidine] | 2.6 (≈ 4.92 µM) | >100 | 5.6 (≈ 10.6 µM) | –
4 | CCCCCCCCCCCCCC(=O)NC(CCC(=O)OC[C@H]1O[C@@H](n2cc(C)c(=O)[nH]c2=O)C[C@@H]1N=[N+]=[N-])C(=O)OC[C@@H]1O[C@H](n2ccc(N)nc2=O)CS1 (stereo partly drawn) [KPH-910] | – | – | – | EC50 Cell-free HIV-1 (IIIB) [3, 4]: 4.9 µg/mL (≈ 5.99 µM); EC50 [3, 4]: 6 µM
5 | CCCCCCCCCCCCCC(=O)Nc1ccn([C@H]2CS[C@@H](COC(=O)CCCCCCCCCCCCC)O2)c(=O)n1 [N4, 5′-O-dimyristoyl-2′,3′-dideoxy-3′-thiacytidine] | – | – | – | IC50 [1, 5]: 87.8 µg/mL (≈ 135 µM); IC50 [2, 6]: > 100 µg/mL; IC50 [3, 5]: > 100 µg/mL
6 | CCCCCCCCCCCCC(OC)C(=O)OC[C@H]1O[C@@H](n2cc(C)c(=O)[nH]c2=O)C[C@@H]1F (stereo partly drawn) [3′-fluoro-2′,3′-dideoxy-5′-O-(2-methoxytetradecanoyl)thymidine] | 0.1 (≈ 0.206 µM) | >100 | 0.5 (≈ 1.03 µM) | –
7 | CCCCCCCCCCCCCC(=O)OC[C@H]1O[C@@H](n2ccc(N)nc2=O)CS1 [5′-O-tetradecanoyl-2′,3′-dideoxy-3′-thiacytidine] | – | – | – | IC50 [1, 5]: 0.082 µg/mL (≈ 0.187 µM); IC50 [2, 6]: 27.3 µg/mL (≈ 62.1 µM); IC50 [3, 5]: 0.3 µg/mL (≈ 0.682 µM)
8 | CCCCCCCCCCCCCC(=O)OC[C@H]1O[C@@H](n2cc(C)c(=O)[nH]c2=O)C[C@@H]1N=[N+]=[N-] [3′-azido-2′,3′-dideoxy-5′-O-(tetradecanoyl)thymidine] | 2.4 (≈ 5.03 µM) | >100 | 1.5 (≈ 3.14 µM) | –
9 | CC(=O)NC(CCC(=O)OC[C@H]1O[C@@H](n2cc(C)c(=O)[nH]c2=O)C[C@@H]1N=[N+]=[N-])C(=O)OC[C@@H]1O[C@H](n2ccc(N)nc2=O)CS1 (stereo partly drawn) [KPH-911, AZT(Glutamyl)-3TC] | – | – | – | EC50 Cell-free HIV-1 (IIIB) [3, 4]: 7.8 µg/mL (≈ 12 µM); EC50 [3, 4]: 12 µM
10 | CCCCCSCCCCCCCC(=O)OC[C@H]1O[C@@H](n2cc(C)c(=O)[nH]c2=O)C[C@@H]1F [3′-fluoro-2′,3′-dideoxy-5′-O-(9-thiatertradecanoyl)thymidine] | 2.1 (≈ 4.44 µM) | >100 | 5.4 (≈ 11.4 µM) | –
11 | Cc1cn(C2C=CC(COC(=O)CCCCCCCCCCCSCCN=[N+]=[N-])O2)c(=O)[nH]c1=O (stereo not drawn) [5′-O-(12-thioethylazidodecanoyl)-2′,3′-didehydro-2′,3′-dideoxythymidine] | 2.7 (≈ 5.32 µM) | 21.7 (≈ 42.7 µM) | 6.7 (≈ 13.2 µM) | –
12 | CC(=O)NC(CCC(=O)OC[C@H]1O[C@@H](n2cc(C)c(=O)[nH]c2=O)C[C@@H]1F)C(=O)OC[C@H]1O[C@@H](n2cc(C)c(=O)[nH]c2=O)C[C@@H]1N=[N+]=[N-] (stereo partly drawn) [KPH-98, FLT(Glutamyl)-AZT] | – | – | – | EC50 Cell-free HIV-1 (IIIB) [3, 4]: 9.0 µg/mL (≈ 13.5 µM); EC50 [3, 4]: 13.5 µM
13 | Cc1cn([C@H]2C=C[C@@H](COC(=O)CCCCCCCCCCCBr)O2)c(=O)[nH]c1=O [12-bromododecanoyl-2′,3′-didehydro-2′,3′-dideoxythymidine] | 1.1 (≈ 2.27 µM) | >100 | 7.2 (≈ 14.8 µM) | –
14 | Cc1cn([C@H]2C[C@H](F)[C@@H](COC(=O)CCCCCCCCCCCBr)O2)c(=O)[nH]c1=O [3′-fluoro-2′,3′-dideoxy-5′-O-(12-bromododecanoyl)thymidine] | <0.1 | >100 | 0.9 (≈ 1.78 µM) | –
15 | CCCCCCCCCCCCCCOC[C@H]1O[C@@H](n2cc(C)c(=O)[nH]c2=O)C[C@@H]1F [3′-fluoro-2′,3′-dideoxy-5′-O-(tetradecyl)thymidine] | 77.3 (≈ 175 µM) | >100 | 79.1 (≈ 180 µM) | –
16 | CCCCCCCCCCCCCCC(=O)OC[C@H]1O[C@@H](n2cc(C)c(=O)[nH]c2=O)C[C@@H]1N=[N+]=[N-] [3′-azido-2′,3′-dideoxy-5′-O-(pentadecanoyl)thymidine] | 2.2 (≈ 4.47 µM) | >100 | 8.8 (≈ 17.9 µM) | –
17 | Cc1cn([C@H]2C[C@H](F)[C@@H](COC(=O)CCCCCCCCCCCN)O2)c(=O)[nH]c1=O [3′-fluoro-2′,3′-dideoxy-5′-O-(12-aminododecanoyl)thymidine] | – | – | 0.67 (≈ 1.52 µM) | –
